How the values were obtained:
Assay in all cases: radiometric filter-binding kinase assay, Kinase HotSpot
Conditions in all cases: compound 0.5 µM; ATP 10 µM
CSNK1A1 (human) = CSNK1A1 (human) (UniProt P48729)
EPHA5 (human) = EPHA5 (human) (UniProt P54756)
SRPK1 (human) = SRPK1 (human) (UniProt Q96SB4)
SRMS (human) = SRMS (human) (UniProt Q9H3Y6)
PRKD3 (human) = PRKD3 (human) (UniProt O94806)
STK4 (human) = STK4 (human) (UniProt Q13043)
PKN1 (human) = PKN1 (human) (UniProt Q16512)
PRKCE (human) = PRKCE (human) (UniProt Q02156)
TSSK1B (human) = TSSK1B (human) (UniProt Q9BXA7)
[1] = target: JAK1 JH1 catalytic (human) (UniProt P23458)
MAP3K10 (human) = MAP3K10 (human) (UniProt Q02779)
CDK4 CCND3 (human) = CDK4 CCND3 (human) (UniProt P30281+P11802)
JAK2 JH1 JH2 (human) = JAK2 JH1 JH2 (human) (UniProt O60674)
MAP3K11 (human) = MAP3K11 (human) (UniProt Q16584)
EGFR (human) = EGFR (human) (UniProt P00533)
PKN2 (human) = PKN2 (human) (UniProt Q16513)
PTK6 (human) = PTK6 (human) (UniProt Q13882)
WNK3 (human) = WNK3 (human) (UniProt Q9BYP7)
ROS1 (human) = ROS1 (human) (UniProt P08922)
MUSK (human) = MUSK (human) (UniProt O15146)
MAPK1 (human) = MAPK1 (human) (UniProt P28482)
MERTK (human) = MERTK (human) (UniProt Q12866)
MAPKAPK3 (human) = MAPKAPK3 (human) (UniProt Q16644)
CAMK2B (human) = CAMK2B (human) (UniProt Q13554)
FGFR1 (human) = FGFR1 (human) (UniProt P11362)
MAPK11 (human) = MAPK11 (human) (UniProt Q15759)
MLTK (human) = MLTK (human) (UniProt Q9NYL2)
PDGFRA (human) = PDGFRA (human) (UniProt P16234)
CAMKK1 (human) = CAMKK1 (human) (UniProt Q8N5S9)
GSK3B (human) = GSK3B (human) (UniProt P49841)
RPS6KA1 KD1 KD2 (human) = RPS6KA1 KD1 KD2 (human) (UniProt Q15418)
IKBKE (human) = IKBKE (human) (UniProt Q14164)
RPS6KA6 KD1 KD2 (human) = RPS6KA6 KD1 KD2 (human) (UniProt Q9UK32)
WEE1 (human) = WEE1 (human) (UniProt P30291)
BRSK1 (human) = BRSK1 (human) (UniProt Q8TDC3)
MAP4K5 (human) = MAP4K5 (human) (UniProt Q9Y4K4)
CDK9 CCNK (human) = CDK9 CCNK (human) (UniProt O75909+P50750)
RPS6KA5 KD2 (human) = RPS6KA5 KD2 (human) (UniProt O75582)
TYRO3 (human) = TYRO3 (human) (UniProt Q06418)
MYLK2 (human) = MYLK2 (human) (UniProt Q9H1R3)
NEK2 (human) = NEK2 (human) (UniProt P51955)

Sequence of GSK3B (human) (P49841 whole entry, looked up): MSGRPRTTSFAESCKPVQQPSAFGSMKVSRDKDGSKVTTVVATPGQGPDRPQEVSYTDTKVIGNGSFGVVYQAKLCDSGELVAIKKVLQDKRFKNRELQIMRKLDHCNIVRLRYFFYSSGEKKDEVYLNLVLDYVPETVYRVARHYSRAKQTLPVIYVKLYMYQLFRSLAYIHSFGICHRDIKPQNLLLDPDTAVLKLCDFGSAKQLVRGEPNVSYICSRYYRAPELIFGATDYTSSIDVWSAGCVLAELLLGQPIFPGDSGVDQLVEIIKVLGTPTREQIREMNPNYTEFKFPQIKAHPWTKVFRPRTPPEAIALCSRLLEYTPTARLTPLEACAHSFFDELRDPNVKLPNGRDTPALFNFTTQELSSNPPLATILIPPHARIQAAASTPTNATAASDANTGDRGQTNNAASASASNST
Sequence of RPS6KA6 KD1 KD2 (human) (Q9UK32 whole entry, looked up): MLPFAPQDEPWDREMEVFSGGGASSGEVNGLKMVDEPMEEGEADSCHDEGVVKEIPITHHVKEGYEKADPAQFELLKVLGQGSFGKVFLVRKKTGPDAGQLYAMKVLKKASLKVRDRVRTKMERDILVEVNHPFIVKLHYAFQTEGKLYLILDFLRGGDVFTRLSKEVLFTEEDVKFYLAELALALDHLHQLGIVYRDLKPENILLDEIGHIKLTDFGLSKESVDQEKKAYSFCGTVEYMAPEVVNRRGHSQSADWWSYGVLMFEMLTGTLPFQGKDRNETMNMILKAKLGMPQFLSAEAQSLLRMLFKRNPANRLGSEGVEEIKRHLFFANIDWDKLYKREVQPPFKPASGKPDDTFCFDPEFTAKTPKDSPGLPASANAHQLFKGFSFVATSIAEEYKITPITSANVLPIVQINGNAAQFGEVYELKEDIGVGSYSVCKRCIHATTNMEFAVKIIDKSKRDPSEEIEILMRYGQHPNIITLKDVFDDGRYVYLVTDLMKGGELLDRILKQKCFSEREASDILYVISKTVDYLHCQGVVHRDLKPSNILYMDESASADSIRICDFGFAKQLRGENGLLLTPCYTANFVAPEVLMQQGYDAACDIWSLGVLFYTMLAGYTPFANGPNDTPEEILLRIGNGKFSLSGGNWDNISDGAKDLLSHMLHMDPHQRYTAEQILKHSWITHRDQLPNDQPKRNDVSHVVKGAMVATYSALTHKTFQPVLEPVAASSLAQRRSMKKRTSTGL
Sequence of EPHA5 (human) (P54756 whole entry, looked up): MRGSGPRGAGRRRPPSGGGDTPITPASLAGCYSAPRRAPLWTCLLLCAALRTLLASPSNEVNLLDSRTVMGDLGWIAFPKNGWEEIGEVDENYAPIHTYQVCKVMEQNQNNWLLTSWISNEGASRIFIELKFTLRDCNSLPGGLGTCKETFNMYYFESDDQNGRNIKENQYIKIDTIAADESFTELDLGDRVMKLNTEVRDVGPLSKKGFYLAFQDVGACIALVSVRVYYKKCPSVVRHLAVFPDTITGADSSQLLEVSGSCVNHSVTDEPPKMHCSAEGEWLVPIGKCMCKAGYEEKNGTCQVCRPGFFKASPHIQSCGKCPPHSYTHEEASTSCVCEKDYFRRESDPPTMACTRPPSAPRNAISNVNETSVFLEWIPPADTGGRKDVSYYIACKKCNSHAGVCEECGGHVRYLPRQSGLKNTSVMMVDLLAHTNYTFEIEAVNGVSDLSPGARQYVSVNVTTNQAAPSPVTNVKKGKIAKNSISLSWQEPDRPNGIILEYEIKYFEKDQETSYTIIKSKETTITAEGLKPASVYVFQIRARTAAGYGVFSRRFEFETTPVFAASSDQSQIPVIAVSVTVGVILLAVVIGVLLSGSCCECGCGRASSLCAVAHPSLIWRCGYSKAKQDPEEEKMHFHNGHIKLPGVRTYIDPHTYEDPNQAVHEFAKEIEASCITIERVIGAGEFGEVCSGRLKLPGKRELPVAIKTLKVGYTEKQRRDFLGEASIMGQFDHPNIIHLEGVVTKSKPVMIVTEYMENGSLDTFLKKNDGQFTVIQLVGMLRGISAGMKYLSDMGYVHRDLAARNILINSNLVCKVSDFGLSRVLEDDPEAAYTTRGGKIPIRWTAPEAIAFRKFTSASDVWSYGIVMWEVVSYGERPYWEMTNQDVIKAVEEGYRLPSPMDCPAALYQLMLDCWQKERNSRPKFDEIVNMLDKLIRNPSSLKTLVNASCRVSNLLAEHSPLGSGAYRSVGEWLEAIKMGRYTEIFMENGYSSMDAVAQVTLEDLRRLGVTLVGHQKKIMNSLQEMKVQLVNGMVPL
Sequence of IKBKE (human) (Q14164 whole entry, looked up): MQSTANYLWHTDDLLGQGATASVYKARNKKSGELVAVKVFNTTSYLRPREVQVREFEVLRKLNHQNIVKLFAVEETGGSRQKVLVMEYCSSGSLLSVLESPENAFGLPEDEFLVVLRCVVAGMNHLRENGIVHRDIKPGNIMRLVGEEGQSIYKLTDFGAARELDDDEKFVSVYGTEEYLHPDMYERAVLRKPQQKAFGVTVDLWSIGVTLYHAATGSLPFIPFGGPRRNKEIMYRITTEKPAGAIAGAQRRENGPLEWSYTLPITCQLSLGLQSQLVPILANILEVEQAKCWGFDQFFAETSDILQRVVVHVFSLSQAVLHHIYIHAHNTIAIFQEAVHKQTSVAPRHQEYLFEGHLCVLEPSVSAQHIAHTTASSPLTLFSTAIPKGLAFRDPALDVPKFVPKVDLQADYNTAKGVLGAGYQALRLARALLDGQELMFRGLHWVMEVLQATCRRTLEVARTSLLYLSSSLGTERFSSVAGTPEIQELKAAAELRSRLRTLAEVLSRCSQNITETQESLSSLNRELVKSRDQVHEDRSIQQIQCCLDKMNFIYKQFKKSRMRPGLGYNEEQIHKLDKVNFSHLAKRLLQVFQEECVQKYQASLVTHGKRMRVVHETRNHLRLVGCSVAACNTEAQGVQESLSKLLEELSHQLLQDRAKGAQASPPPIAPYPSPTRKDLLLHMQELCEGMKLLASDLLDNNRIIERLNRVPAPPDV
Sequence of PKN1 (human) (Q16512 whole entry, looked up): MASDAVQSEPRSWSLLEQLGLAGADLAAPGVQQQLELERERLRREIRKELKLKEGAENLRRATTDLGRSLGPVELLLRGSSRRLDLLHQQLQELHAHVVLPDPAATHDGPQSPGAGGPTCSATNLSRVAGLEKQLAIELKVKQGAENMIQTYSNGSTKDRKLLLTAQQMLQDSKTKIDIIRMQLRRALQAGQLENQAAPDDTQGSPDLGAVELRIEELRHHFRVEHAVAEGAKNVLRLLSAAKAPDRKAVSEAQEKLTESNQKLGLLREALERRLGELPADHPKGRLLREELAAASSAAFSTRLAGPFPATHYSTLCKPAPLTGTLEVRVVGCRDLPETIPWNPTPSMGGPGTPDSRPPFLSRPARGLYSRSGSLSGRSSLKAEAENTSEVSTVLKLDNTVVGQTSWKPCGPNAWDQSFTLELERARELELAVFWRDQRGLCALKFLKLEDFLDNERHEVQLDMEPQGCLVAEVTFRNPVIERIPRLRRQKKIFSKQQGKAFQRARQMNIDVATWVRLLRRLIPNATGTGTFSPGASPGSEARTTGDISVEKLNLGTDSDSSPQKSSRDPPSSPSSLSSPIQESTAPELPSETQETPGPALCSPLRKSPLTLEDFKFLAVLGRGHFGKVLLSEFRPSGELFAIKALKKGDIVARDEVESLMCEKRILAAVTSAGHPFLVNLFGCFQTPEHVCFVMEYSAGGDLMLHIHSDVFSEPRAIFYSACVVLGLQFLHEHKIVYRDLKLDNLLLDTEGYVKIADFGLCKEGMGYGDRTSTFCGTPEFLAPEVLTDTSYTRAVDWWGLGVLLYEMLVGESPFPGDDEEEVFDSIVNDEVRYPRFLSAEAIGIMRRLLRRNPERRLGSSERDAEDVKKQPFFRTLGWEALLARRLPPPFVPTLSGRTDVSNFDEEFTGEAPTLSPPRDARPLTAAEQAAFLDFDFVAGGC
Sequence of MLTK (human) (Q9NYL2 whole entry, looked up): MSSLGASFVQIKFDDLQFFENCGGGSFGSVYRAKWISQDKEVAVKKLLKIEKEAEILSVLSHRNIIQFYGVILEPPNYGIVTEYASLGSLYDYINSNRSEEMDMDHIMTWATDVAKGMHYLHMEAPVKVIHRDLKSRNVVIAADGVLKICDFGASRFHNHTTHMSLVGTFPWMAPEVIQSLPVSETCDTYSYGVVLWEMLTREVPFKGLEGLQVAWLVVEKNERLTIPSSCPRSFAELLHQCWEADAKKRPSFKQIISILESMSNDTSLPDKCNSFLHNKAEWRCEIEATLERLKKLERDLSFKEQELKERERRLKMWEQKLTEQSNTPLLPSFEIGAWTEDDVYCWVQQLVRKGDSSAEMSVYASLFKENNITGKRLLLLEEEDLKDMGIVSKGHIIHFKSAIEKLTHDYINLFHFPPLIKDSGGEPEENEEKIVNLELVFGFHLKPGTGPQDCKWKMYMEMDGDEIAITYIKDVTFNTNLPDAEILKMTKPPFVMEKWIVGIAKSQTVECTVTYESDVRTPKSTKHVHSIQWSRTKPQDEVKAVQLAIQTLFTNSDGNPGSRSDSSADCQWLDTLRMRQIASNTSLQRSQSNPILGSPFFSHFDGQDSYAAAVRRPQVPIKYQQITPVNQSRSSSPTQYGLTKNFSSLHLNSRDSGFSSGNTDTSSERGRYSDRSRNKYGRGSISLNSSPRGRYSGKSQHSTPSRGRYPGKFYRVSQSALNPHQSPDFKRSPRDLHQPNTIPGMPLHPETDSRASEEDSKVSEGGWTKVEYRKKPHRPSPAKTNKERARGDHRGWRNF
Sequence of CSNK1A1 (human) (P48729 whole entry, looked up): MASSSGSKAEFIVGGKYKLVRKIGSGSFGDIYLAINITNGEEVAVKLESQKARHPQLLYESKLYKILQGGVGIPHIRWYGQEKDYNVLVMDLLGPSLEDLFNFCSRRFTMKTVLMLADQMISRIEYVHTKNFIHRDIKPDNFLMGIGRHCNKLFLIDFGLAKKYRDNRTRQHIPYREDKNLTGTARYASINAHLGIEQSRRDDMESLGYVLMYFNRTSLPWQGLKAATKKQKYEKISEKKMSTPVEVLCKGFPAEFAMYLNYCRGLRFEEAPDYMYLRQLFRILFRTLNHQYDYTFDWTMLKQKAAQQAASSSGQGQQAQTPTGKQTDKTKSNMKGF

SMILES | residual activity (CSNK1A1 (human)) | residual activity (EPHA5 (human)) | residual activity (SRPK1 (human)) | residual activity (SRMS (human)) | residual activity (PRKD3 (human)) | residual activity (STK4 (human)) | residual activity (PKN1 (human)) | residual activity (PRKCE (human)) | residual activity (TSSK1B (human)) | residual activity [1] | residual activity (MAP3K10 (human)) | residual activity (CDK4 CCND3 (human)) | residual activity (JAK2 JH1 JH2 (human)) | residual activity (MAP3K11 (human)) | residual activity (PKN2 (human)) | residual activity (PTK6 (human)) | residual activity (WNK3 (human)) | residual activity (ROS1 (human)) | residual activity (MUSK (human)) | residual activity (MAPK1 (human)) | other results
COc1ccc(OC)c2c(=S)c3ccccc3[nH]c12 | 102% | 114% | 99.9% | 83.5% | 94.1% | 96.8% | 109% | 93.3% | 114% | 102% | 92.8% | 95.5% | 96% | 107% | 105% | 84% | 99.1% | 103% | 87.3% | 91.5% | residual activity (EGFR (human)): 91%; residual activity (MERTK (human)): 86.7%; residual activity (MAPKAPK3 (human)): 87.7%; residual activity (CAMK2B (human)): 104%; residual activity (FGFR1 (human)): 89.6%; residual activity (MAPK11 (human)): 86.7%; residual activity (MLTK (human)): 94%; residual activity (PDGFRA (human)): 85.6%; residual activity (CAMKK1 (human)): 108%; residual activity (GSK3B (human)): 61.3%; residual activity (RPS6KA1 KD1 KD2 (human)): 94.6%; residual activity (IKBKE (human)): 104%; residual activity (RPS6KA6 KD1 KD2 (human)): 85.2%; residual activity (WEE1 (human)): 102%; residual activity (BRSK1 (human)): 93.7%; residual activity (MAP4K5 (human)): 95.2%; residual activity (CDK9 CCNK (human)): 92.2%; residual activity (RPS6KA5 KD2 (human)): 86%; residual activity (TYRO3 (human)): 97.1%; residual activity (MYLK2 (human)): 95.7%
CCn1cnc2c(Nc3cccc(Cl)c3)nc(N[C@@H]3CCCC[C@@H]3N)nc21 | 98.7% | 73.9% | 94.2% | 85.9% | 90.6% | 91.3% | 69.9% | 90.6% | 87.4% | 98.6% | 92.9% | 71.5% | 104% | 77.6% | 90.3% | 82.1% | 92% | 90.7% | 79.8% | 91.7% | residual activity (EGFR (human)): 98.1%; residual activity (NEK2 (human)): 100%; residual activity (MERTK (human)): 76.2%; residual activity (MAPKAPK3 (human)): 91.3%; residual activity (CAMK2B (human)): 110%; residual activity (FGFR1 (human)): 85.7%; residual activity (MAPK11 (human)): 94.1%; residual activity (MLTK (human)): 104%; residual activity (PDGFRA (human)): 100%; residual activity (CAMKK1 (human)): 107%; residual activity (GSK3B (human)): 104%; residual activity (IKBKE (human)): 99.5%; residual activity (RPS6KA6 KD1 KD2 (human)): 75.7%; residual activity (WEE1 (human)): 110%; residual activity (BRSK1 (human)): 92.4%; residual activity (MAP4K5 (human)): 91.1%; residual activity (CDK9 CCNK (human)): 46.9%; residual activity (RPS6KA5 KD2 (human)): 87.8%; residual activity (TYRO3 (human)): 98.3%; residual activity (MYLK2 (human)): 95.2%
Cn1cnc2cc3c(Nc4cccc(Br)c4)ncnc3cc21 | 102% | 71.5% | 96.1% | 84% | 93.1% | 94.2% | 89.1% | 87.8% | 104% | 96.4% | 94% | 95.9% | 103% | 94.8% | 85.7% | 54% | 95.8% | 99.9% | 85.3% | 94.2% | residual activity (NEK2 (human)): 103%; residual activity (MERTK (human)): 77.5%; residual activity (MAPKAPK3 (human)): 94.4%; residual activity (CAMK2B (human)): 102%; residual activity (FGFR1 (human)): 89.6%; residual activity (MAPK11 (human)): 85.9%; residual activity (MLTK (human)): 93.3%; residual activity (PDGFRA (human)): 107%; residual activity (CAMKK1 (human)): 107%; residual activity (GSK3B (human)): 101%; residual activity (RPS6KA1 KD1 KD2 (human)): 103%; residual activity (IKBKE (human)): 98.7%; residual activity (RPS6KA6 KD1 KD2 (human)): 92.5%; residual activity (WEE1 (human)): 106%; residual activity (BRSK1 (human)): 81.6%; residual activity (MAP4K5 (human)): 56.1%; residual activity (CDK9 CCNK (human)): 100%; residual activity (RPS6KA5 KD2 (human)): 93.5%; residual activity (TYRO3 (human)): 94.5%; residual activity (MYLK2 (human)): 87.6%
